# Several values for one entry are separate records, joined by “and”; a condition that tells them apart may be missing. Equal entries are not always repeated.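 A five-concentration, 48-hour dose response in 96-well plates underlies each endpoint, interpolated linearly between surrounding concentrations. GI50 marks 50% less growth. The concentration for full growth arrest is given as TGI.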
# Assays:
# Assay in all cases: NCI tumour cell line growth inhibition, 48 h
# OVCAR-4 ovarian = tested on: OVCAR-4 ovarian
# OVCAR-5 ovarian = tested on: OVCAR-5 ovarian
# COLO 205 colon = tested on: COLO 205 colon
# NCI-H23 lung = tested on: NCI-H23 lung
# SF-295 CNS = tested on: SF-295 CNS
# SNB-19 CNS = tested on: SNB-19 CNS
# SF-268 CNS = tested on: SF-268 CNS
# PC-3 prostate = tested on: PC-3 prostate
# DU-145 prostate = tested on: DU-145 prostate
# NCI-H226 lung = tested on: NCI-H226 lung
SMILES,GI50 (OVCAR-4 ovarian) [µM],TGI (OVCAR-4 ovarian),GI50 (OVCAR-5 ovarian) [µM],TGI (OVCAR-5 ovarian) [µM],GI50 (COLO 205 colon) [µM],TGI (COLO 205 colon),GI50 (NCI-H23 lung) [µM],TGI (NCI-H23 lung),GI50 (SF-295 CNS) [µM],TGI (SF-295 CNS) [µM],GI50 (SNB-19 CNS) [µM],TGI (SNB-19 CNS) [µM],GI50 (SF-268 CNS) [µM],TGI (SF-268 CNS),GI50 (PC-3 prostate) [µM],TGI (PC-3 prostate),GI50 (DU-145 prostate) [µM],TGI (DU-145 prostate),GI50 (NCI-H226 lung) [µM],TGI (NCI-H226 lung)
CC1=C(C(=O)Nc2ccc3[nH]ncc3c2)C(c2ccc3ccccc3c2)CC(=O)N1 (stereo not given),13.4,> 25 µM,20.5,> 25,9.96,> 21.2 µM,19,> 25 µM,16.5,> 25,> 25,> 25,11.5,> 25 µM,> 25,> 25 µM,> 25,> 25 µM,1.04,> 18.2 µM
C[C@]12CC[C@H](O)CC1=CC[C@@H]1[C@@H]2CC[C@]2(C)C(c3cccnc3)=CC[C@@H]12,95.2,> 100 µM,> 100,> 100,> 100,> 100 µM,12.2,> 100 µM,6.07,> 100,26.8,> 100,15.7,> 100 µM,> 100,> 100 µM,> 100,> 100 µM,> 68,> 100 µM
Nc1ccn(C2O[C@H](CO)[C@@H](O)[C@@H]2O)c(=O)n1 (stereo not given in full),,> 100 µM,,> 100,51.8,> 100 µM,30.4,> 100 µM,,> 100,,> 100,,> 100 µM,,> 100 µM,,> 100 µM,,> 100 µM
O=NN(Cc1ccc(Cl)cc1)C(C(=O)O)c1ccccc1 (stereo not given),,> 100 µM,,> 100,,> 100 µM,,> 100 µM,,> 100,,> 100,,> 100 µM,,> 100 µM,,> 100 µM,,> 100 µM
CC1=C(CCCNS(C)(=O)=O)C2=C(C)C3(CC3)[C@@](C)(O)C(=O)C2=C1,0.9,5.32 µM,0.654,7.62,0.853,2.69 µM,0.269,1.83 µM,0.634,19.9,1.93,> 100,0.373,14.2 µM,1.68,> 100 µM,0.369,17.4 µM,1.04,5.79 µM
O=c1oc2ccc(F)cc2c(=O)n1-c1ccc(F)cc1F,3.02,30.2 µM,3.46,> 100,3.56,12.5 µM,2.96,19.7 µM,2.33,5.58,3.5,> 100,3.34,52.1 µM,2.81,10.1 µM,4.18,> 100 µM,2.82,72.9 µM
CNC(=O)OCc1c(COC(=O)NC)c(-c2ccc(Cl)c(Cl)c2)n2c1SCC2,3.59,25.5 µM,,10.8,,26.7 µM,,40.5 µM,,35.7,,> 84.9,,32.9 µM,,55.1 µM,,39.5 µM,,2.67 µM
CSc1ccc(C2=NN(C(C)=O)C(c3cc(C)cs3)C2)cc1 (stereo not given),18,> 100 µM,44.4,> 100,17.3,35.8 µM,29.9,> 100 µM,22.4,> 100,37,> 100,35.6,> 100 µM,20.2,95.6 µM,34.6,> 100 µM,21.8,> 100 µM
CC1OC(n2cc(F)c(=O)[nH]c2=O)CCC1O (stereo not given),,> 100 µM,,> 100,,> 100 µM,,> 100 µM,,> 100,,> 100,,> 100 µM,,> 100 µM,,> 100 µM,,> 100 µM
CN(C)CCNc1cc(-c2ccccc2)nc2ccccc12,7.45,37.4 µM,5.9,36.8,2.92,7.74 µM,11.2,37.6 µM,7.85,46.9,14.6,49.7,4.98,22.7 µM,4.61,24.9 µM,5.04,22.2 µM,5.98,30.2 µM
Cc1cc(N(CCOS(C)(=O)=O)CCOS(C)(=O)=O)ccc1C=Nc1ccc(-c2nc(Cc3ccccc3)sc2C)cc1,,36.8 µM,,37.8,,4.76 µM,,17.8 µM,,32.4,,43.9,,20.4 µM,,22.1 µM,,11.7 µM,,22.6 µM
CC1CCC2(C(=O)O)CCC3(C)C(=CCC4C5(C)CC(O)C(O)C(C)(CO)C5C(O)CC43C)C2C1C (stereo not given),,> 100 µM,,> 100,,> 100 µM,,> 100 µM,,> 100,,56.1,,> 87.2 µM,,> 100 µM,,> 100 µM,,> 100 µM
O=C1/C(=C/c2ccc(Br)cc2)C=C(c2ccccc2)N1CCc1ccccc1,0.554,3.13 µM,4.28,40.2,3.26,27.5 µM,1.69,14.6 µM,0.332,1.59,1.21,5.03,2.27,16.3 µM,1.2,5.06 µM,2.54,15.8 µM,1.11,4.57 µM
Cc1cc(I)cc(CNCCCN2CCSCC2)c1O,20.3,46.7 µM,15.9,41.7,15,30.8 µM,20.9,63.7 µM,11.8,24.6,18.4,41,17.2,36.4 µM,17.7,36.3 µM,20.3,42.7 µM,24.5,79.8 µM
CCOC(=O)/C=C(/C(=O)OCC)n1cc(Cl)c(=O)n(CC(=O)OCC)c1=O,34.2,14 µM and > 100 µM,36.6,,1.32,2.81 µM and 2.59 µM,20,10.8 µM and 41.5 µM,> 100,> 100,32.7,> 100,24,12.2 µM and 41.4 µM,19.5,9.64 µM and 34.6 µM,,8.47 µM and 31.3 µM,,> 25 µM and 32.5 µM

# — PubChem BioAssay (NCI)
